From patent EP0885890A1, “SULFONYLUREIDOPYRAZOLE DERIVATIVES” (SUMITOMO PHARMACEUTICALS COMPANY, LIMITED, priority 1996, dated 1997)

Experiments:
rat lung ECE = target: T1, rat lung ECE (Rattus norvegicus, UniProt P42893); assay: ECE inhibitory activity (rat lung ECE, conversion of human big ET-1 to ET-1, sandwich enzyme immunoassay); type: biochemical; conditions: rat lung ECE 10 µg, human big ET-1 0.8µg, 37°C, one hour
T1 construct: The solution was ultracentrifuged to obtain a supernatant, which can be used as the rat lung ECE; from tissue; host or cells: rat lung
T1 sequence (P42893 1-762): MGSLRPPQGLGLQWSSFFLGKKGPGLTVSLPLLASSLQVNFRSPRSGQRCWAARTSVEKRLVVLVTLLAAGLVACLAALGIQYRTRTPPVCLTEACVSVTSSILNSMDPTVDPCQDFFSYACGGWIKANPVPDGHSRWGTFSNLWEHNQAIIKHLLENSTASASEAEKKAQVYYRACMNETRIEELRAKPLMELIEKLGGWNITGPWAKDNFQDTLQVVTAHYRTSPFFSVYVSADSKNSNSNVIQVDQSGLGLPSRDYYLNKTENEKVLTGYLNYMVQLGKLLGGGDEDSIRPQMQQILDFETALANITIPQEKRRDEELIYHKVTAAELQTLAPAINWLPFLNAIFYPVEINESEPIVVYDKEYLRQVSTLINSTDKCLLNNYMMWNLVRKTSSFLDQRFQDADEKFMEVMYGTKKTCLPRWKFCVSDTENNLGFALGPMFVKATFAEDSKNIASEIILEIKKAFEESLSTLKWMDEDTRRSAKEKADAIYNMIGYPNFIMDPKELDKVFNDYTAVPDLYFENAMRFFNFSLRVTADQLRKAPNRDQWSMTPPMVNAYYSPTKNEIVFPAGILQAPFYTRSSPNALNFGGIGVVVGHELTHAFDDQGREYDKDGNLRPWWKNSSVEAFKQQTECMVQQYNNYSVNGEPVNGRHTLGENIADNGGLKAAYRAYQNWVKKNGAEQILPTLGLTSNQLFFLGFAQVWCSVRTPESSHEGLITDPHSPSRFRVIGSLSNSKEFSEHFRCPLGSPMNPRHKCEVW
Method: Preparation of rat lung ECE and measurement of ECE inhibitory activity
Rat lung tissue was homogenized with a homogenizer in ice-cold 20 mM Tris-HCl buffer (pH7.5) containing 5 mM magnesium chloride, 1 mM phenylmethylsulfonyl fluoride (PMSF), 20 µM pepstatin A, and 20 µM leupeptin. The homogenate was centrifuged at 800 x G, and the supernatant was ultracentrifuged at 100,000 x G. Then, the procedures in which the resulting pellet was resuspended in the above buffer and ultracentrifuged as shown above, were repeated further twice so that plasma components and the like were removed. The resulting pellet was suspended, homogenized with a glass homogenizer, and ultracentrifuged. The resulting pellet was solubilized in 0.5% Triton X- 100. The solution was ultracentrifuged to obtain a supernatant, which can be used as the rat lung ECE. Each test compound and the rat lung ECE (10 µg) were preincubated at 37°C for 15 minutes in a 100mM Tris-HCl buffer (pH7.0) containing 1mM NEM, 100µM leupeptin, and 20µM pepstatin A, and then human big ET-1 (0.8µg) was added thereto (totally 200µl), and the mixture was incubated at 37°C for one hour.
The reaction was stopped by the addition of EDTA to give a final concentration of 1mM. ECE activities were determined to quantify the produced ET-1 by the ET-1 specific sandwich enzyme immunoassay method.
ECE inhibitory activities of the test compounds were evaluated by determination of the ECE activities in the presence or absence of the test compounds.

ECE = target: T2, ECE (Rattus norvegicus, UniProt P42893); assay: Effect on the change in blood pressure induced by big ET-1 in anesthetized rats (ECE inhibition in vivo); parameters: species or system Male SD rat; conditions: for Increase in systolic pressure: 15 minutes before big ET-1 (1nmol/kg i.v.), vehicle group 96 ± 4
T2 construct: from tissue; host or cells: whole anesthetized male SD rat (in vivo)
T2 sequence (P42893 1-762): T1 sequence (P42893 1-762)
Method: Test 2 Effect on the change in blood pressure induced by big ET-1 in rats
Male SD rat (body weight 230∼280g) was anesthetized with sodium thiobarbiturate (65mg/kg, i.p.) and fixed on a warming surgical bed, and the right femoral artery and the vein were cannulated for measurement of arterial blood pressure and for injection of test compounds, respectively. The ganglia were blocked by intraperitoneal administration of pentolinium (10mg/kg). After stabilization of blood pressure for about 10 minutes, test compound or its vehicle (polyethylene glycol 400) was administered intravenously (0.5ml/kg). Fifteen minutes later, the big ET-1 (1nmol/kg) was administered intravenously. ECE inhibitory activities of the test compounds in vivo shown by an index of the change in blood pressure induced by big ET-1 were evaluated by inhibitory ratio to that of the vehicle group.

endopeptidase = assay: Inhibitory activity against metalloproteases other than ECE (endopeptidase); type: biochemical; conditions: at 10^-5M
Excerpt: (§1) The inhibitory activity of the compound of Preparation 1 against metalloproteases other than ECE, such as endopeptidase, stromelissin, and the like, are under 20% at 10^-5M, and therefore, the compound is highly specific to ECE.

stromelissin = stromelissin (Homo sapiens, UniProt P08254); assay: Inhibitory activity against metalloproteases other than ECE (stromelissin); type: biochemical; conditions: at 10^-5M
Excerpt: as §1

Chain of stromelissin (P08254 100-477): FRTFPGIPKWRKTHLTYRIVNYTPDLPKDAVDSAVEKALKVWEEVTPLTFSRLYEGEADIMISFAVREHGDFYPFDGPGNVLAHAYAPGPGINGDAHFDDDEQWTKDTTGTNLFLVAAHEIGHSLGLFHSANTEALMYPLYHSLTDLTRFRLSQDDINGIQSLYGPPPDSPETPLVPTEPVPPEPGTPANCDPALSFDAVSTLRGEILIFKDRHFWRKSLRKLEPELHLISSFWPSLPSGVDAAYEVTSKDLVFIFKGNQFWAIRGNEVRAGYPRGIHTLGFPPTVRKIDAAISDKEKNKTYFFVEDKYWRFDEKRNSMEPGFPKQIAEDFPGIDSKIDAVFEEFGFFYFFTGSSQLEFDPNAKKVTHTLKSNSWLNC

| IC50 (rat lung ECE) | inhibitory activity (endopeptidase) | inhibition at 10 µM (stromelissin) | SMILES | Big ET-1-induced increasing in blood pressure (ECE; 3 and 10mg/kg intravenously) | Increase in systolic pressure (ECE; Dose 3 mg/kg intravenously) | Increase in systolic pressure (ECE; Dose 10 mg/kg intravenously) |
| --- | --- | --- | --- | --- | --- | --- |
| 290 nM |  |  | Cc1ccc(S(=O)(=O)NC(=O)Nc2c(C#N)cnn2C2CCCCC2)cc1 [Example 4, 4-cyano-1-cyclohexyl-5-{3-(4-toluenesulfonyl)ureido}-(1H)-pyrazole] |  |  |  |
| 45 nM |  |  | Cc1nn(-c2ccccc2)c(NC(=O)NS(=O)(=O)c2ccc(Cl)cc2)c1C#N [Example 37, 4-cyano-3-methyl-1-phenyl-5-{3-(4-chlorobenzenesulfonyl)ureido}-(1H)-pyrazole] | apparently inhibited | 65 ± 8 mmHg | 34 ± 6 mmHg |
| 4600 nM | under 20% | < 20% | Cc1ccc(S(=O)(=O)NC(=O)Nc2c(C#N)cnn2-c2ccccc2)cc1 [Preparation 1, 4-cyano-1-phenyl-5-{3-(4-toluenesulfonyl)ureido}-(1H)-pyrazole] |  |  |  |
